Active and inactive are the calls of the source. The calls are words filed in the database; no cut-off is given here.
How the values were obtained:
Format in all cases: nucleic-acid assay
[1] = test system: Nucleic Acid; assay: Binding affinity to calf thymus DNA by absorption titration analysis; details: Bos taurus
[2] = test system: Nucleic Acid; assay: Induction of Escherichia coli supercoiled pBR322 DNA cleavage at 0.02 mM after 48 hrs by densitometric analysis
[3] = test system: Nucleic Acid; assay: Induction of Escherichia coli supercoiled pBR322 DNA cleavage at 0.02 mM after 48 hrs by gel electrophoresis analysis

| K [1] [×10⁴ /M] | Activity [2] | Activity [3] [%] | SMILES |
| --- | --- | --- | --- |
| 11 | Active | 20 | CC(C)[C@H](NC(=O)COc1ccccc1/N=N/c1ccccc1OCC(=O)N[C@H](C(=O)OCC#CCS(=O)(=O)c1ccccc1)C(C)C)C(=O)OCC#CCS(=O)(=O)c1ccccc1 |
| 9 | Active | 10 | O=C(COc1ccccc1/N=N/c1ccccc1OCC(=O)N[C@@H](Cc1ccccc1)C(=O)OCC#CCS(=O)(=O)c1ccccc1)N[C@@H](Cc1ccccc1)C(=O)OCC#CCS(=O)(=O)c1ccccc1 |
| – | – | 25 | O=S(=O)(CC#CCOc1ccccc1/N=N/c1ccccc1OCC#CCS(=O)(=O)c1ccccc1)c1ccccc1 |

From ChEMBL document CHEMBL1800008, “Design, synthesis and reactivity of C2-symmetric azobenzene-based amino acid-bis(propargyl sulfones)” (Bioorg Med Chem Lett, 2010)
